Data from PubChem BioAssay AID248 (DTP/NCI, 2004).
Values joined by “and” are separate entries in the source; they are usually repeats but may differ in a detail not shown here. Equal entries are not always repeated. Inconclusive results and toxic doses are left out. Cut-off read from the data, not from the text of the source: active = T/C of 150% or more; inactive = T/C below 125%.

Test system: L1210 leukemia ip in BDF1 mice, survival T/C
Assay: NCI In Vivo Anticancer Drug Screen. Data for tumor model L1210 Leukemia (intraperitoneal) in B6D2F1 (BDF1) mice
Details: endpoint: mean survival time, higher = longer survival
Summary of the method: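 In this screen, tumor-bearing mice given compound are compared to those given vehicle, and their survival values are reported as a treated-to-control quotient.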

[1] = dose: 25.0 mg/kg/injection, schedule: Q04DX003 (ip), vehicle: saline
[2] = dose: 100.0 mg/kg/injection, schedule: Q01DX009 (ip), vehicle: Klucel (hydroxypropylcellulose) (HPC)
[3] = dose: 200.0 mg/kg/injection, schedule: Q01DX009 (ip), vehicle: Klucel (hydroxypropylcellulose) (HPC)
[4] = dose: 100.0 mg/kg/injection, schedule: Q04DX002 (ip), vehicle: Klucel (hydroxypropylcellulose) (HPC)
[5] = dose: 200.0 mg/kg/injection, schedule: Q04DX002 (ip), vehicle: Klucel (hydroxypropylcellulose) (HPC)
[6] = dose: 400.0 mg/kg/injection, schedule: Q04DX002 (ip), vehicle: Klucel (hydroxypropylcellulose) (HPC)
[7] = dose: 100.0 mg/kg/injection, schedule: Q01DX001 (ip), vehicle: saline
[8] = dose: 200.0 mg/kg/injection, schedule: Q01DX001 (ip), vehicle: saline
[9] = dose: 400.0 mg/kg/injection, schedule: Q01DX001 (ip), vehicle: saline
[10] = dose: 100.0 mg/kg/injection, schedule: Q04DX003 (ip), vehicle: Klucel (hydroxypropylcellulose) (HPC)
[11] = dose: 200.0 mg/kg/injection, schedule: Q04DX003 (ip), vehicle: Klucel (hydroxypropylcellulose) (HPC)
[12] = dose: 400.0 mg/kg/injection, schedule: Q04DX003 (ip), vehicle: Klucel (hydroxypropylcellulose) (HPC)
[13] = dose: 100.0 mg/kg/injection, schedule: Q04DX003 (ip), vehicle: saline with Tween-80
[14] = dose: 200.0 mg/kg/injection, schedule: Q04DX003 (ip), vehicle: saline with Tween-80
[15] = dose: 100.0 mg/kg/injection, schedule: Q01DX001 (ip), vehicle: carboxymethylcellulose (CMC)
[16] = dose: 200.0 mg/kg/injection, schedule: Q01DX001 (ip), vehicle: carboxymethylcellulose (CMC)
[17] = dose: 400.0 mg/kg/injection, schedule: Q01DX001 (ip), vehicle: carboxymethylcellulose (CMC)
[18] = dose: 100.0 mg/kg/injection, schedule: Q04DX003 (ip), vehicle: saline
[19] = dose: 200.0 mg/kg/injection, schedule: Q04DX003 (ip), vehicle: saline
[20] = dose: 400.0 mg/kg/injection, schedule: Q04DX003 (ip), vehicle: saline
[21] = dose: 100.0 mg/kg/injection, schedule: Q01DX009 (ip), vehicle: saline
[22] = dose: 200.0 mg/kg/injection, schedule: Q01DX009 (ip), vehicle: saline

Measured: T/C

Nc1nc(N)c2cc(NCc3ccc(Br)cc3)ccc2n1
inactive: dose: 6.25 mg/kg/injection, schedule: Q01DX009 (ip), vehicle: saline with Tween-80 103 % of control | dose: 12.5 mg/kg/injection, schedule: Q01DX009 (ip), vehicle: saline with Tween-80 100 % of control | [1] 96 % of control

CCN(C(=O)Nc1ccc(SC)cc1)c1ccccc1
inactive: [2] 103 % of control | [3] 108 % of control

O=C(CC(=O)OCc1ccc([N+](=O)[O-])cc1)OCc1ccc([N+](=O)[O-])cc1
inactive: dose: 25.0 mg/kg/injection, schedule: Q01DX001 (ip), vehicle: Klucel (hydroxypropylcellulose) (HPC) 104 % of control | dose: 50.0 mg/kg/injection, schedule: Q01DX001 (ip), vehicle: Klucel (hydroxypropylcellulose) (HPC) 95 % of control | dose: 100.0 mg/kg/injection, schedule: Q01DX001 (ip), vehicle: Klucel (hydroxypropylcellulose) (HPC) 92 % of control

NC(=S)NN=C1CCCC1
inactive: dose: 6.25 mg/kg/injection, schedule: Q04DX003 (ip), vehicle: saline 96 % of control | dose: 12.5 mg/kg/injection, schedule: Q04DX003 (ip), vehicle: saline 94 % of control | [1] 94 % of control

O=P(N=C=S)(N=C=S)N=C=S
inactive: dose: 75.0 mg/kg/injection, schedule: Q01DX001 (ip), vehicle: other 114 % of control

Cc1ccc(Oc2ccc3c(c2)CN(C)CC3)cc1
inactive: [4] 97 % of control | [5] 102 % of control | [6] 91 % of control

Cc1cc2nc3c(=O)[nH]c(=O)nc-3n(CCOC(=O)CCC(=O)O)c2cc1C
inactive: dose: 50.0 mg/kg/injection, schedule: Q01DX001 (ip), vehicle: saline 116 % of control | [7] 103 % of control | [8] 114 % of control | [9] 103 % of control

Cc1c(NC(=O)CCl)c(=O)n(-c2ccccc2)n1C
inactive: [2] 98 % of control | [10] 100 % of control | [3] 94 % of control | [11] 96 % of control | [12] 95 % of control

c1ccc([C@H]2N[C@H]2c2ccccc2)cc1
inactive: [10] 96 % of control | [11] 95 % of control | [12] 98 % of control

Brc1ccc2[nH]c3c(c2c1)CSc1ccccc1-3
inactive: [13] 105 % of control | [14] 99 % of control | dose: 400.0 mg/kg/injection, schedule: Q04DX003 (ip), vehicle: saline with Tween-80 103 % of control

N#CCCN(C(=O)Nc1ccccc1)C1CCCCC1
inactive: dose: 100.0 mg/kg/injection, schedule: Q01DX Z (ip), vehicle: methylcellulose (MC) 101 % of control | dose: 200.0 mg/kg/injection, schedule: Q01DX Z (ip), vehicle: methylcellulose (MC) 89 % of control

COc1cc2c(c(OC)c1OC)-c1ccc(SCc3ccccc3)c(=O)cc1[C@@H](NC(C)=O)CC2
inactive: dose: 6.25 mg/kg/injection, schedule: Q01DX009 (ip), vehicle: Klucel (hydroxypropylcellulose) (HPC) 106 % of control | dose: 8.2 mg/kg/injection, schedule: Q01DX009 (ip), vehicle: Klucel (hydroxypropylcellulose) (HPC) 121 % of control | dose: 12.5 mg/kg/injection, schedule: Q01DX009 (ip), vehicle: Klucel (hydroxypropylcellulose) (HPC) 124 % of control | dose: 18.0 mg/kg/injection, schedule: Q01DX009 (ip), vehicle: Klucel (hydroxypropylcellulose) (HPC) 101 % of control | dose: 25.0 mg/kg/injection, schedule: Q01DX009 (ip), vehicle: Klucel (hydroxypropylcellulose) (HPC) 115 % of control and 92 % of control

COc1ccc(CCN(CCO)CCNS(=O)(=O)c2ccc(C)cc2)cc1
inactive: dose: 100.0 mg/kg/injection, schedule: Q01DX001 (ip), vehicle: water 98 % of control | dose: 200.0 mg/kg/injection, schedule: Q01DX001 (ip), vehicle: water 107 % of control | dose: 400.0 mg/kg/injection, schedule: Q01DX001 (ip), vehicle: water 107 % of control

OC1CCCC2CCC[N-]C12.OC1CCCC2CCC[N-]C12.[Mn+2] (stereo unspecified)
inactive: dose: 50.0 mg/kg/injection, schedule: Q04DX003 (ip), vehicle: Klucel (hydroxypropylcellulose) (HPC) 106 % of control | [10] 113 % of control | [11] 106 % of control

CC1(C)CN=C(SC(=O)c2ccc([N+](=O)[O-])cc2)S1
inactive: dose: 100.0 mg/kg/injection, schedule: Q04DX002 (ip), vehicle: gum acacia 100 % of control | dose: 200.0 mg/kg/injection, schedule: Q04DX002 (ip), vehicle: gum acacia 93 % of control | dose: 400.0 mg/kg/injection, schedule: Q04DX002 (ip), vehicle: gum acacia 93 % of control

CCSCC1C=CC(n2cnc3c(N)ncnc32)O1 (stereo unspecified)
inactive: dose: 50.0 mg/kg/injection, schedule: Q01DX001 (ip), vehicle: carboxymethylcellulose (CMC) 109 % of control | [15] 109 % of control | [16] 98 % of control | [17] 109 % of control

CCOC(=O)c1ccc(NC(=S)NC(=O)C(C)Oc2ccccc2)cc1 (stereo unspecified)
inactive: dose: 100.0 mg/kg/injection, schedule: Q01DX001 (ip), vehicle: saline with Tween-80 102 % of control | dose: 100.0 mg/kg/injection, schedule: Q01DX009 (ip), vehicle: saline with Tween-80 92 % of control and 103 % of control | dose: 100.0 mg/kg/injection, schedule: Q04DX002 (ip), vehicle: saline with Tween-80 93 % of control and 106 % of control | [13] 93 % of control | dose: 200.0 mg/kg/injection, schedule: Q01DX001 (ip), vehicle: saline with Tween-80 94 % of control | dose: 200.0 mg/kg/injection, schedule: Q01DX009 (ip), vehicle: saline with Tween-80 99 % of control and 112 % of control | dose: 200.0 mg/kg/injection, schedule: Q04DX002 (ip), vehicle: saline with Tween-80 93 % of control and 106 % of control | [14] 93 % of control | dose: 400.0 mg/kg/injection, schedule: Q01DX001 (ip), vehicle: saline with Tween-80 108 % of control | dose: 400.0 mg/kg/injection, schedule: Q01DX009 (ip), vehicle: saline with Tween-80 97 % of control and 100 % of control | dose: 400.0 mg/kg/injection, schedule: Q04DX002 (ip), vehicle: saline with Tween-80 92 % of control and 93 % of control

CN(C)C(=S)Oc1ccc([N+](=O)[O-])cc1Cl
inactive: [2] 103 % of control | [3] 95 % of control | dose: 400.0 mg/kg/injection, schedule: Q01DX009 (ip), vehicle: Klucel (hydroxypropylcellulose) (HPC) 100 % of control

CCCCCCCCCCCCCCCCCC1=Nc2ccccc2NC(=O)C1
inactive: [15] 98 % of control | [16] 98 % of control | [17] 93 % of control

COc1ccc2nc3cc(Cl)ccc3c(Cl)c2c1
inactive: dose: 50.0 mg/kg/injection, schedule: Q04DX003 (ip), vehicle: carboxymethylcellulose (CMC) 87 % of control | [15] 97 % of control | dose: 100.0 mg/kg/injection, schedule: Q04DX003 (ip), vehicle: carboxymethylcellulose (CMC) 92 % of control | [16] 90 % of control | dose: 200.0 mg/kg/injection, schedule: Q04DX003 (ip), vehicle: carboxymethylcellulose (CMC) 91 % of control | [17] 100 % of control

Cc1cc(=O)n(-c2ccccc2)n1C
inactive: [18] 104 % of control | [19] 106 % of control | [20] 106 % of control

CCCCCCCCC/C(C)=C1/SC(=S)NC1=O
inactive: [7] 102 % of control | [21] 88 % of control | [8] 93 % of control | [9] 95 % of control

O=S(=O)(O)CCCCO
inactive: [21] 98 % of control | [18] 95 % of control | [22] 95 % of control | [19] 100 % of control | dose: 400.0 mg/kg/injection, schedule: Q01DX009 (ip), vehicle: saline 95 % of control | [20] 97 % of control

c1ccc2cc3c(cc2c1)OCO3
inactive: [4] 110 % of control | [5] 107 % of control | [6] 98 % of control

C#CCOP(=O)(OCC)OCC
inactive: [21] 105 % of control | [22] 103 % of control
